Experimental data: ChEMBL document CHEMBL1201862, “PubChem BioAssay data set” (2004)
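How tested: cells in 96-well plates exposed to compound for 48 hours at five concentrations. GI50: concentration for 50% inhibition of growth.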 Calls of active or inactive are those of the source. No stated cut-off is given here; in the data, active = GI50 up to about 1.1 µM and inactive = higher.

What was measured:
Experiment in all cases: DTP human tumour cell line panel, 48 h
UACC-257 = system: UACC-257
A549 = system: A549
MDA-MB-231 = system: MDA-MB-231
RXF 393 = system: RXF 393
RPMI-8226 = system: RPMI-8226
UACC-62 = system: UACC-62
NCI-H23 = system: NCI-H23
HCC 2998 = system: HCC 2998
U-251 = system: U-251
SF-539 = system: SF-539
SF-268 = system: SF-268
ACHN = system: ACHN
OVCAR-5 = system: OVCAR-5
SK-OV-3 = system: SK-OV-3
SK-MEL-5 = system: SK-MEL-5
Hs-578T = system: Hs-578T
M14 = system: M14
A498 = system: A498
NCI-H522 = system: NCI-H522

SMILES	GI50 (UACC-257)	GI50 (A549)	GI50 (MDA-MB-231)	GI50 (RXF 393)	GI50 (RPMI-8226)	GI50 (UACC-62)	GI50 (NCI-H23)	GI50 (HCC 2998)	GI50 (U-251)	GI50 (SF-539)	GI50 (SF-268)	GI50 (ACHN)	GI50 (OVCAR-5)	GI50 (SK-OV-3)	GI50 (SK-MEL-5)	GI50 (Hs-578T)	GI50 (M14)	GI50 (A498)	GI50 (NCI-H522)
N#Cc1cc2c(cc1Cl)Sc1nnc(Nc3ccccc3)n1S2(=O)=O	1.79 µM (inactive)	5.94 µM (inactive)	1.91 µM (inactive)	1.73 µM (inactive)	0.692 µM (active)	1.83 µM (inactive)	1.62 µM (inactive)	1.55 µM (inactive)	1.87 µM (inactive)	2.07 µM (inactive)	2.82 µM (inactive)	1.74 µM (inactive)	1.92 µM (inactive)	5.04 µM (inactive)	2.43 µM (inactive)	2.3 µM (inactive)	2.17 µM (inactive)	8.32 µM (inactive)	1.89 µM (inactive)
COC(=O)/C=C\[C@H]1[C@H](C)N1S(=O)(=O)c1ccc(C)cc1 (stereo partly specified)	> 100 µM (inactive)	> 100 µM (inactive)	> 100 µM (inactive)	> 100 µM (inactive)	> 100 µM (inactive)	> 100 µM (inactive)	> 100 µM (inactive)	> 100 µM (inactive)	> 100 µM (inactive)	> 100 µM (inactive)	> 100 µM (inactive)	> 100 µM (inactive)	> 100 µM (inactive)	> 100 µM (inactive)	> 100 µM (inactive)	> 100 µM (inactive)	> 100 µM (inactive)	> 100 µM (inactive)	20.4 µM (inactive)
ClCCCCCc1c2nc(c(CCCCCCl)c3ccc([nH]3)c(CCCCCCl)c3nc(c(CCCCCCl)c4ccc1[nH]4)C=C3)C=C2	> 100 µM (inactive)	> 100 µM (inactive)	> 100 µM (inactive)	> 100 µM (inactive)	> 100 µM (inactive)	> 100 µM (inactive)	> 100 µM (inactive)	> 100 µM (inactive)	> 100 µM (inactive)	> 100 µM (inactive)	> 100 µM (inactive)	> 100 µM (inactive)	> 100 µM (inactive)	> 100 µM (inactive)	> 100 µM (inactive)	> 100 µM (inactive)	> 100 µM (inactive)	> 100 µM (inactive)	> 100 µM (inactive)
CCC(/C=C/c1ccccc1)=N\NC(=S)N/N=C(/C=C/c1ccccc1)CC	39.6 µM (inactive)	17.2 µM (inactive)	> 100 µM (inactive)	38.5 µM (inactive)	35.5 µM (inactive)	54.8 µM (inactive)	84.3 µM (inactive)	84.1 µM (inactive)	18.1 µM (inactive)	31.5 µM (inactive)	12.8 µM (inactive)	34.2 µM (inactive)	–	20.1 µM (inactive)	23 µM (inactive)	> 100 µM (inactive)	46.1 µM (inactive)	20.8 µM (inactive)	30.5 µM (inactive)
Oc1c(Cl)c(Cl)c(O)c2c1CCCC2	16.8 µM (inactive)	21 µM (inactive)	15.4 µM (inactive)	10.6 µM (inactive)	2.72 µM (inactive)	13.4 µM (inactive)	18.4 µM (inactive)	14.3 µM (inactive)	17.5 µM (inactive)	8.69 µM (inactive)	11.6 µM (inactive)	1.75 µM (inactive)	–	14.2 µM (inactive)	13 µM (inactive)	14.6 µM (inactive)	15.5 µM (inactive)	19.1 µM (inactive)	1.97 µM (inactive)
N#CC1=C(N)N(/N=C/c2ccccc2)C(c2ccccc2)C1(C#N)C#N (stereo unspecified)	9.38 µM (inactive)	18.7 µM (inactive)	17 µM (inactive)	3.39 µM (inactive)	4.94 µM (inactive)	13.5 µM (inactive)	17.9 µM (inactive)	19.6 µM (inactive)	17.7 µM (inactive)	16.5 µM (inactive)	20.7 µM (inactive)	4.3 µM (inactive)	18.7 µM (inactive)	12.6 µM (inactive)	14.2 µM (inactive)	24.1 µM (inactive)	12.6 µM (inactive)	15.9 µM (inactive)	4.38 µM (inactive)
CCCCCCCCCc1cccc(N2C(N)=NC(N)=NC2(C)C)c1	0.0611 µM (active)	< 0.01 µM (active)	0.302 µM (active)	1.95 µM (inactive)	0.0112 µM (active)	< 0.01 µM (active)	< 0.01 µM (active)	< 0.01 µM (active)	< 0.01 µM (active)	0.0339 µM (active)	< 0.023 µM (active)	< 0.0158 µM (active)	–	1.62 µM (inactive)	0.0277 µM (active)	1.04 µM (active)	< 0.01 µM (active)	1.24 µM (inactive)	0.0451 µM (active)
OC(C1CCC=NN1C(O)(C(F)(F)F)C(F)(F)F)(C(F)(F)F)C(F)(F)F (stereo unspecified)	> 10 µM (inactive)	> 10 µM (inactive)	> 10 µM (inactive)	> 10 µM (inactive)	> 10 µM (inactive)	> 10 µM (inactive)	> 10 µM (inactive)	> 10 µM (inactive)	> 10 µM (inactive)	> 10 µM (inactive)	> 10 µM (inactive)	> 10 µM (inactive)	> 10 µM (inactive)	> 10 µM (inactive)	> 10 µM (inactive)	> 10 µM (inactive)	> 10 µM (inactive)	> 10 µM (inactive)	> 10 µM (inactive)
O=Cc1ccc(-c2ccc(S(=O)(=O)O)cc2)o1	> 100 µM (inactive)	> 100 µM (inactive)	> 100 µM (inactive)	> 100 µM (inactive)	> 100 µM (inactive)	> 100 µM (inactive)	> 100 µM (inactive)	> 100 µM (inactive)	> 100 µM (inactive)	> 100 µM (inactive)	> 100 µM (inactive)	> 100 µM (inactive)	> 100 µM (inactive)	> 100 µM (inactive)	> 100 µM (inactive)	> 100 µM (inactive)	> 100 µM (inactive)	> 100 µM (inactive)	> 100 µM (inactive)
c1ccc2c(c1)SCCC2NC1=NCCO1 (stereo unspecified)	–	> 100 µM (inactive)	> 100 µM (inactive)	> 100 µM (inactive)	> 100 µM (inactive)	> 100 µM (inactive)	> 100 µM (inactive)	> 100 µM (inactive)	> 100 µM (inactive)	> 100 µM (inactive)	> 100 µM (inactive)	> 100 µM (inactive)	> 100 µM (inactive)	> 100 µM (inactive)	> 100 µM (inactive)	> 100 µM (inactive)	> 100 µM (inactive)	> 100 µM (inactive)	> 100 µM (inactive)
Cc1ccc(N2C(=O)C(=O)N(/N=C3\C(=O)Nc4ccccc43)C2=S)cc1	> 100 µM (inactive)	> 100 µM (inactive)	> 100 µM (inactive)	39.1 µM (inactive)	40.6 µM (inactive)	92.9 µM (inactive)	86.7 µM (inactive)	93.5 µM (inactive)	26.3 µM (inactive)	> 100 µM (inactive)	58.5 µM (inactive)	67.6 µM (inactive)	> 100 µM (inactive)	> 100 µM (inactive)	41.2 µM (inactive)	> 100 µM (inactive)	> 100 µM (inactive)	> 100 µM (inactive)	63.2 µM (inactive)
CC(C)OP(=O)(OC(C)C)C(Nc1cccc(C(F)(F)F)c1)c1ccccc1 (stereo unspecified)	39.1 µM (inactive)	30.5 µM (inactive)	45.9 µM (inactive)	49.5 µM (inactive)	12.7 µM (inactive)	69.8 µM (inactive)	55.6 µM (inactive)	55.6 µM (inactive)	58.5 µM (inactive)	> 100 µM (inactive)	> 100 µM (inactive)	35.6 µM (inactive)	> 100 µM (inactive)	> 100 µM (inactive)	22.4 µM (inactive)	75.3 µM (inactive)	38.5 µM (inactive)	> 100 µM (inactive)	20.2 µM (inactive)
O=C1OC(c2ccccc2)=NC1c1ccccc1 (stereo unspecified)	> 100 µM (inactive)	> 100 µM (inactive)	> 100 µM (inactive)	> 100 µM (inactive)	> 100 µM (inactive)	> 100 µM (inactive)	> 100 µM (inactive)	> 100 µM (inactive)	> 100 µM (inactive)	> 100 µM (inactive)	> 100 µM (inactive)	> 100 µM (inactive)	> 100 µM (inactive)	> 100 µM (inactive)	> 100 µM (inactive)	> 100 µM (inactive)	> 100 µM (inactive)	> 100 µM (inactive)	> 100 µM (inactive)
COc1ccc2c(c1)[nH]c1c(/C=C/c3ccccc3)nccc12	16.1 µM (inactive)	14.9 µM (inactive)	17.5 µM (inactive)	14.8 µM (inactive)	13.3 µM (inactive)	14.5 µM (inactive)	15.3 µM (inactive)	13 µM (inactive)	14.1 µM (inactive)	13 µM (inactive)	17.7 µM (inactive)	12.2 µM (inactive)	14.9 µM (inactive)	13.8 µM (inactive)	14.8 µM (inactive)	19 µM (inactive)	15.9 µM (inactive)	12.3 µM (inactive)	12.4 µM (inactive)
CCOC(=O)Nc1cc2c(c(N)n1)N=C(c1ccc(Cl)cc1Cl)CN2	20.8 µM (inactive)	< 0.0191 µM (active)	0.0442 µM (active)	< 0.01 µM (active)	< 0.01 µM (active)	< 0.0105 µM (active)	0.0834 µM (active)	0.0995 µM (active)	< 0.019 µM (active)	< 0.0173 µM (active)	0.0845 µM (active)	0.0535 µM (active)	0.0392 µM (active)	0.509 µM (active)	< 0.0124 µM (active)	< 0.0143 µM (active)	0.0766 µM (active)	2.68 µM (inactive)	< 0.0213 µM (active)
